Earlier results on one compound are cited in patent US20130210879A1, “FORMULATIONS OF BENDAMUSTINE” (priority 2012, published 2013).

Consider `Cn1c(CCCC(=O)O)nc2cc(N(CCCl)CCCl)ccc21` [Bendamustine], for which the stability in water result is given as “measured in hours”.
